According to ChEMBL document CHEMBL5465560, “Selectivity Literature for EUbOPEN Chemogenomic Library” (2024):

Columns and labels:
[1] = biological target: Serine/threonine-protein kinase MRCK gamma (Homo sapiens) (UniProt Q6DT37); details: at 10 µM
[2] = biological target: T1, Uncharacterized serine/threonine-protein kinase SBK3 (Homo sapiens) (UniProt P0C264); assay: Selectivity interaction (KinomeScan (DiscoverX)) EUB0000092b SBK3; details: at 10 µM
T1 sequence (whole entry): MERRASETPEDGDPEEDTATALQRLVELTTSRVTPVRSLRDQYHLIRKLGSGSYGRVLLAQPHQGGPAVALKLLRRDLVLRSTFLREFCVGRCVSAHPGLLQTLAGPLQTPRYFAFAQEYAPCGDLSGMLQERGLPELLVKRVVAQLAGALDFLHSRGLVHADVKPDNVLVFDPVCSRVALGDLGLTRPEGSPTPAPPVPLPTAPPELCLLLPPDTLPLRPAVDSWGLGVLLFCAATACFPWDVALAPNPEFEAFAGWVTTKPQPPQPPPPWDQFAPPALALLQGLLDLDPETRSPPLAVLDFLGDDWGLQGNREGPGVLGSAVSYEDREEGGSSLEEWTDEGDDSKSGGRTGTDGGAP

[3] = biological target: Kappa-type opioid receptor (Homo sapiens, UniProt P41145); assay: Selectivity interaction (Panel of kinases, GPCRs, ion channels and transporters (enzymatic assay)) EUB0000266bCl OPRK1
[4] = biological target: Tyrosine-protein kinase Srms (Homo sapiens) (UniProt Q9H3Y6); assay: Selectivity interaction (KinomeScan (DiscoverX)) EUB0001079a SRMS; details: at 1 µM
[5] = biological target: Delta-type opioid receptor (Homo sapiens, UniProt P41143); assay: Selectivity interaction (Opiate Delta receptor assay, human recombinant ) EUB0000877a OPRD1
[6] = biological target: Serine/threonine-protein kinase 33 (Homo sapiens) (UniProt Q9BYT3); details: at 10 µM
[7] = biological target: T2, Hormonally up-regulated neu tumor-associated kinase (Homo sapiens) (UniProt P57058); details: at 10 µM
T2 sequence (whole entry): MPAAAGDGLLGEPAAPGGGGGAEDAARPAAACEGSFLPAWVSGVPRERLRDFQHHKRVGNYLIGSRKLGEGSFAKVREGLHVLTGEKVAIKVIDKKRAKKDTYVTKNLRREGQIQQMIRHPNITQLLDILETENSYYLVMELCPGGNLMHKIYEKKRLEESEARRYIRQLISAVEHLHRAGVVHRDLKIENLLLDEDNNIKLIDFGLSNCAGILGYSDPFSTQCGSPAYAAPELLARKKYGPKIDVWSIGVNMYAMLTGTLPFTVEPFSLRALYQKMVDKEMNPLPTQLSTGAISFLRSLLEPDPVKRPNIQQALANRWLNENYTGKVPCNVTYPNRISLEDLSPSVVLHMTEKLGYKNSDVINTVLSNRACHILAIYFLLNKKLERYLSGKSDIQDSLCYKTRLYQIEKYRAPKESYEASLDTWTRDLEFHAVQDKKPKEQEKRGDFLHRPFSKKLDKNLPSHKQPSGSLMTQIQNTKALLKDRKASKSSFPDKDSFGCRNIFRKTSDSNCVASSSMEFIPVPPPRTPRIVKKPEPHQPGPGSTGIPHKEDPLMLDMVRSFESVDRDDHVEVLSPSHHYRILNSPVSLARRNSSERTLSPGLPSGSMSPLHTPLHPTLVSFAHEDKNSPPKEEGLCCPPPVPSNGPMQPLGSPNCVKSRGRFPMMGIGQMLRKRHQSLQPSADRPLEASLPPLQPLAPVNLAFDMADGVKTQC

[8] = biological target: Ribosomal protein S6 kinase alpha-2 (Homo sapiens) (UniProt Q15349); assay: Selectivity interaction (ActivX KiNativ screen (kinase selectivity in THP-1 cell lysates)) EUB0000639a RPS6KA2; format: subcellular; details: lysate, at 0.01 µM
[9] = biological target: T3, Inhibitor of nuclear factor kappa-B kinase subunit epsilon (Homo sapiens) (UniProt Q14164); assay: Selectivity interaction (KinomeScan (DiscoverX)) EUB0000695a IKBKE; details: at 100 nM
T3 sequence (whole entry): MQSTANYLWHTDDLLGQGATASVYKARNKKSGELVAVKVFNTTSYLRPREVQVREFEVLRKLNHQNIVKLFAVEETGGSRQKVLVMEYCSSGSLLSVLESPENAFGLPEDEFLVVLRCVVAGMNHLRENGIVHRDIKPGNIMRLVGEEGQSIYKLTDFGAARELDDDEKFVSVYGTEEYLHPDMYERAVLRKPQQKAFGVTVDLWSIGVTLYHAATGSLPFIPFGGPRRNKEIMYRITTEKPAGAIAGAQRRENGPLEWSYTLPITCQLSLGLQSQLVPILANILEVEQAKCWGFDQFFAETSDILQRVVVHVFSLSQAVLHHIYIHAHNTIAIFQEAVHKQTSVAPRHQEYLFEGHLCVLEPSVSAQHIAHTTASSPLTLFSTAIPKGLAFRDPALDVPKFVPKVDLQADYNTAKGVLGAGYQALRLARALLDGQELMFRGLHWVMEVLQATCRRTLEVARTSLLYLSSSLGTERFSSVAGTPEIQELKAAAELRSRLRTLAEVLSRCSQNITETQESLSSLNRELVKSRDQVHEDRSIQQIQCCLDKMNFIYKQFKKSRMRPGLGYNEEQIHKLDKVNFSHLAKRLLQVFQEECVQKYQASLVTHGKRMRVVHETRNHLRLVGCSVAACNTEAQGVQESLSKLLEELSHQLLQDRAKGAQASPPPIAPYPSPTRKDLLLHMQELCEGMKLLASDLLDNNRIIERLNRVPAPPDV

[10] = biological target: Tyrosine-protein kinase ABL2 (Homo sapiens, UniProt P42684); assay: Selectivity interaction (KinomeScan (DiscoverX)) EUB0000618a ABL2; details: at 10 µM
[11] = biological target: RAC-beta serine/threonine-protein kinase (Homo sapiens) (UniProt P31751); assay: Selectivity interaction (Ambit KINOMEscan and KiNATiv profiling in Jurkat cells) EUB0000090b AKT2; format: cell-based; details: at 1 µM
[12] = biological target: Serine/threonine-protein kinase 24 (Homo sapiens) (UniProt Q9Y6E0); assay: Selectivity interaction (KinomeScan (DiscoverX)) EUB0001619a STK24; details: at 1 µM
Sequence of Serine/threonine-protein kinase 24 (Homo sapiens) (Q9Y6E0 whole entry, looked up): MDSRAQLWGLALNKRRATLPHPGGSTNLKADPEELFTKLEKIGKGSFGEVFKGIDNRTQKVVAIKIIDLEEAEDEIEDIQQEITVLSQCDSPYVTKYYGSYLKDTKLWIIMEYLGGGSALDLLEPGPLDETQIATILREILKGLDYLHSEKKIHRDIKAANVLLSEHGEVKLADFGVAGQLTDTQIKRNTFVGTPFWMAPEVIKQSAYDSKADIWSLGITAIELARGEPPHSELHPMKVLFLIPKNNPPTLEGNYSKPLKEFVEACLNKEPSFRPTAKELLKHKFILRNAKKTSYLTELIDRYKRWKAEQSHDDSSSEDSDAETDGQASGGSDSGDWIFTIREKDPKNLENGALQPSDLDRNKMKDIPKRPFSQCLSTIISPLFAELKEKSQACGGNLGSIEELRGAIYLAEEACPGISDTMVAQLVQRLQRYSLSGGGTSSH

Sequence of Serine/threonine-protein kinase 33 (Homo sapiens) (Q9BYT3 whole entry, looked up): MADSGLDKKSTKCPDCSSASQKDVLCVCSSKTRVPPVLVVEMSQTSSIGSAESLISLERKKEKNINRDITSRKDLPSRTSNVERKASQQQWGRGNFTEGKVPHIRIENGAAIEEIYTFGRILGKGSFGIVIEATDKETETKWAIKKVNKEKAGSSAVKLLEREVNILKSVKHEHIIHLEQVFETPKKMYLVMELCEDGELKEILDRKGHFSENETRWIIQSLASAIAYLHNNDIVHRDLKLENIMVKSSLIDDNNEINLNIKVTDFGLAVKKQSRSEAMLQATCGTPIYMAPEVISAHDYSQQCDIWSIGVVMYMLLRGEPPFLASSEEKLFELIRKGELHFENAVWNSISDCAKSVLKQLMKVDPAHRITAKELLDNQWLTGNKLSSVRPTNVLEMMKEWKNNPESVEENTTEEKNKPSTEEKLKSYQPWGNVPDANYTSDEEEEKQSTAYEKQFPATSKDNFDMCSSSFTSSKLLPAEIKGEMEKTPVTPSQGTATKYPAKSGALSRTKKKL
Sequence of Tyrosine-protein kinase Srms (Homo sapiens) (Q9H3Y6 whole entry): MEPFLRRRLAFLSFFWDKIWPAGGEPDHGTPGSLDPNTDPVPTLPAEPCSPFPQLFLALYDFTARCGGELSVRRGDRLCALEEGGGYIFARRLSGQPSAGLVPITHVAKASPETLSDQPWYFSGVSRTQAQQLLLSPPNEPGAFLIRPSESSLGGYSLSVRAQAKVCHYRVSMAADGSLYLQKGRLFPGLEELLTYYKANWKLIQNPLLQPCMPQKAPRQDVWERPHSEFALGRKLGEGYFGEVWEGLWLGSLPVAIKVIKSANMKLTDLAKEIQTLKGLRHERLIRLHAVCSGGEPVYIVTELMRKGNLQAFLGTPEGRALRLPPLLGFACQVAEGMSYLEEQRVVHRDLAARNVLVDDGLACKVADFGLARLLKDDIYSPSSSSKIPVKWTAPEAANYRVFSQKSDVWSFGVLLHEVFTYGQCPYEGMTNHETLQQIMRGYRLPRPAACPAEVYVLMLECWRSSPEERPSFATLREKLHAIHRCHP
Sequence of Serine/threonine-protein kinase MRCK gamma (Homo sapiens) (Q6DT37 whole entry): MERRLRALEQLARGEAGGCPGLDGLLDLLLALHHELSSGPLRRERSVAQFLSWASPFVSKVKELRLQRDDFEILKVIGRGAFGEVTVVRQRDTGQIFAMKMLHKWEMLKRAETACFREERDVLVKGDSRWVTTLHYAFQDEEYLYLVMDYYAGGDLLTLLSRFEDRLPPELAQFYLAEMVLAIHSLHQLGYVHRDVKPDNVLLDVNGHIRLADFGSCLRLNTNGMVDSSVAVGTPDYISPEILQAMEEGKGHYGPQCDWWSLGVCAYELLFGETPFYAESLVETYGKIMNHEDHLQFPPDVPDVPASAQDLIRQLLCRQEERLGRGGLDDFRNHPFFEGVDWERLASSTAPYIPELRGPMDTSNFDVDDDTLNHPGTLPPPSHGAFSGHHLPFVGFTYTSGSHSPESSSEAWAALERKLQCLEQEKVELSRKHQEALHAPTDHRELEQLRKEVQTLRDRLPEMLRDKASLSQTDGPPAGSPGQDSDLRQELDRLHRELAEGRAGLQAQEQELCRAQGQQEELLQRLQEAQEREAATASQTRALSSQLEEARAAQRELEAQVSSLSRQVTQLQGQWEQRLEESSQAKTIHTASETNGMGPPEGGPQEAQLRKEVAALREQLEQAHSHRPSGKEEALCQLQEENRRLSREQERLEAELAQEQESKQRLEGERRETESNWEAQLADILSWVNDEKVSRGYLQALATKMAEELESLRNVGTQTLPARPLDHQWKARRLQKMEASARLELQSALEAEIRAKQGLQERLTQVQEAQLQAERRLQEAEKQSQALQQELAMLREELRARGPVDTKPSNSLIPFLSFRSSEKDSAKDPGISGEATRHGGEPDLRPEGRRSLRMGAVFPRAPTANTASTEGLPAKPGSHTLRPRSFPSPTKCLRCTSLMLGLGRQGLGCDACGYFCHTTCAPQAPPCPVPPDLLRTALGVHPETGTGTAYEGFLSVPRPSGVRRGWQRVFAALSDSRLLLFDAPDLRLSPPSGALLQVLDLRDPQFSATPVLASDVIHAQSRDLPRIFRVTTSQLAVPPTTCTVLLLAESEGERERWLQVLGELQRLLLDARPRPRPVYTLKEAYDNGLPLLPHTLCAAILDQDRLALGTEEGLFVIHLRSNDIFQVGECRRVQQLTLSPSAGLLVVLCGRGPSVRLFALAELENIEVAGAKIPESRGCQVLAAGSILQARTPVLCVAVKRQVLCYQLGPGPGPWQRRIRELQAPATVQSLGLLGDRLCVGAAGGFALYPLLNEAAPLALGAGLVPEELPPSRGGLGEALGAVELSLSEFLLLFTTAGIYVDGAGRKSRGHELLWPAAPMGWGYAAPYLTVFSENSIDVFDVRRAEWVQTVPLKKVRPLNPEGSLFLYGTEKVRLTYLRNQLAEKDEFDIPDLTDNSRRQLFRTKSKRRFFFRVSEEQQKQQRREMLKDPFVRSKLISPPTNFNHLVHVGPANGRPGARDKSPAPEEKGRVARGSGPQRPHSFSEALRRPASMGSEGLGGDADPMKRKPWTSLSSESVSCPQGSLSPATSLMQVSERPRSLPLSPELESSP
Sequence of Tyrosine-protein kinase ABL2 (P42684 whole entry): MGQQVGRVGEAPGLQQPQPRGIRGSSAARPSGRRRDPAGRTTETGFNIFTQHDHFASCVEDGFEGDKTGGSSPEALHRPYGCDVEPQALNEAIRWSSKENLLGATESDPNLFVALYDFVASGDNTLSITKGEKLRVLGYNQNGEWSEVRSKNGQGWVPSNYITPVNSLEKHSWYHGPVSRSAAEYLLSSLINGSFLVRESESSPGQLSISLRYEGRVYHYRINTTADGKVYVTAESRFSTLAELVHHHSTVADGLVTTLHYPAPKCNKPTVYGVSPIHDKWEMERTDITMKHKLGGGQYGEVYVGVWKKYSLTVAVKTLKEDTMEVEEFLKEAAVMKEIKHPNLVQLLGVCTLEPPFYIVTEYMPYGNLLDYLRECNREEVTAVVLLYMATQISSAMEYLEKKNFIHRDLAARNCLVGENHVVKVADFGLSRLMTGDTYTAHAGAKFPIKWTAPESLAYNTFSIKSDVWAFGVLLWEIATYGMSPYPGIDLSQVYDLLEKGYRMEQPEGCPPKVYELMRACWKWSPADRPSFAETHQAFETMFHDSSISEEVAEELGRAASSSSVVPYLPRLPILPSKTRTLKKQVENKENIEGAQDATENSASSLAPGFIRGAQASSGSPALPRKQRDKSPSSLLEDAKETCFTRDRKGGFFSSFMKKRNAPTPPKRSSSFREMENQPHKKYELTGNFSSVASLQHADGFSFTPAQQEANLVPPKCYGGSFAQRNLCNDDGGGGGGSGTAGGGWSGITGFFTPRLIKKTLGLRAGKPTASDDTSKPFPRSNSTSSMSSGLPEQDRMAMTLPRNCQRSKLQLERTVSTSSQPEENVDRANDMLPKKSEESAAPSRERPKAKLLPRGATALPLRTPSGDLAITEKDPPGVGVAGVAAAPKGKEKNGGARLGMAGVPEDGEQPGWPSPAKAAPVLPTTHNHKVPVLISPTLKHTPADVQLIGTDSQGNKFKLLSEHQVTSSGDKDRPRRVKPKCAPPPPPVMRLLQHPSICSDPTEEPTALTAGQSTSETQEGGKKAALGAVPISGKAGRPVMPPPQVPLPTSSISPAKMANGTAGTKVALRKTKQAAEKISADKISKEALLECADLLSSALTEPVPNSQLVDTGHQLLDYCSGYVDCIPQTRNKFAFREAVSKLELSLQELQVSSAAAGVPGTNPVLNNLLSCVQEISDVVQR
Sequence of RAC-beta serine/threonine-protein kinase (Homo sapiens) (P31751 whole entry): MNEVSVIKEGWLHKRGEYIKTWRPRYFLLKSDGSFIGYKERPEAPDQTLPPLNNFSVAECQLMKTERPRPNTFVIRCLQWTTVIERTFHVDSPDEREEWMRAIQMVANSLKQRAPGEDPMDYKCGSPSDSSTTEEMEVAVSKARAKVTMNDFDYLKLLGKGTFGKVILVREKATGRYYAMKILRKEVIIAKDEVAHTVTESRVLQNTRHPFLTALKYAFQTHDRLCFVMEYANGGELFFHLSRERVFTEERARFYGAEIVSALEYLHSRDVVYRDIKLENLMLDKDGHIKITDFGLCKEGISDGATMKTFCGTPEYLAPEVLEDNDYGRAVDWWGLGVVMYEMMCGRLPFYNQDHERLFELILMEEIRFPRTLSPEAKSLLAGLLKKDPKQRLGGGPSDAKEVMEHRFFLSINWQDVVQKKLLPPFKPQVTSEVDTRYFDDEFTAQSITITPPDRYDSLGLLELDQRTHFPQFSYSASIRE
Sequence of Kappa-type opioid receptor (P41145 whole entry): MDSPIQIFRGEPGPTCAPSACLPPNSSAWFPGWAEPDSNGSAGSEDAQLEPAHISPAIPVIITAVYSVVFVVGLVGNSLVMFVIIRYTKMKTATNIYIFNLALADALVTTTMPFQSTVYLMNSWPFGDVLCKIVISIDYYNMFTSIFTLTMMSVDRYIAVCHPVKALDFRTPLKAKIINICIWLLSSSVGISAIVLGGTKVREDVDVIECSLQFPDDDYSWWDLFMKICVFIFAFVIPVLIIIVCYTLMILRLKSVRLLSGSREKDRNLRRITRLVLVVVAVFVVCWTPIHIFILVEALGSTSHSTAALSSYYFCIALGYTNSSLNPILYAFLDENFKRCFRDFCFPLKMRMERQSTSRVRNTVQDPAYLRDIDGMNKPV

CCN(CC)CCCCNc1ncc2cc(-c3cc(OC)cc(OC)c3)c(NC(=O)NC(C)(C)C)nc2n1
% of control [1]: 100%

CCC(=O)N1CCN(c2ccc(-n3c(=O)ccc4cnc5ccc(-c6cnc7ccccc7c6)cc5c43)cc2C(F)(F)F)CC1
% of control [2]: 94%

CCn1c(-c2nc3cc(C(=O)N4CCCC(N)C4)ccc3n2C)cc2ccccc21 (configuration not stated)
pXC50 [3]: < 4 M

Nc1cnc(N2CCc3cc(S(=O)(=O)Nc4c(F)cc(Cl)cc4F)cc(N4CCCC4=O)c32)nc1 [TP-020n]
% of control [4]: 88%

CCC(=O)N1CC[C@H](Nc2ncnc3c2CN(c2cnc(OC)c(C(F)(F)F)c2)CC3)C1 [LENIOLISIB]
IC50 [5]: > 30 µM

Cc1cc([C@@H](C)Nc2ccccc2C(=O)O)c2nc(N3CCOCC3)cc(=O)n2c1 [AZD-6482]
% of control [6]: 100%
% of control [7]: 81%

CC[C@@H]1[C@H](F)C(=O)N[C@@H]1COc1nccc2cc(C(N)=O)c(OC)cc12 [ZIMLOVISERTIB]
% of inhibition [8]: -10.4%

Cc1cc(F)c(C(=O)Nc2cccc(-c3nncn3C(C)C)n2)cc1-n1cnc(C2CC2)c1
% of control [9]: 100%

O[C@H]1CC[C@H](Nc2ncc3nc(Nc4c(F)cc(F)cc4F)n([C@H]4CCOC4)c3n2)CC1
% of control [10]: 100%

CN(C)C/C=C/C(=O)Nc1ccc(C(=O)N2CCCC(Nc3ncc(Cl)c(-c4c[nH]c5ccccc45)n3)C2)cc1 (configuration not stated)
% of control [11]: 80%

N#Cc1cccc(-c2c[nH]c3ncnc(N4CCOCC4)c23)c1
% of control [12]: 60%
